According to patent publication US4738954A, “Novel N^6 -substituted-5'-oxidized adenosine analogs” (Warner-Lambert Company, priority 1985, dated 1988):

Target: T1, adenosine A2 receptor (Rattus norvegicus, UniProt P30543)
T1 construct: Brains were thawed and then kept on ice while the striata were dissected out; tissue Pel-Freez (Rogers, Arkansas) (rat brains); host or cells: rat striatum, membranes
Assay: Adenosine Receptor Binding--A2 Receptor Affinity (RBA2), [3H]NECA displacement
Assay type: rat (Sprague-Dawley striatal membranes)
Conditions: 4 nM [3H]NECA + 50 nM N6-cyclopentyladenosine, rat striatum, 25° C, 60 min; read-out: RBA-2 (IC50, A2 receptor affinity)
Description: Adenosine Receptor Binding--A2 Receptor Affinity (RBA2)
Brains from 200-500 g mixed sex Sprague-Dawley rats were purchased from Pel-Freez (Rogers, Arkansas). Fresh brains from male Long-Evans hooded rats (Blue Spruce Farms, Altamont, NY) gave essentially identical results. Brains were thawed and then kept on ice while the striata were dissected out. Striata were disrupted in 10 vol of ice-cold 50 mM Tris.HCl (pH 7.7 at 25° C., pH 8.26 at 5° C.) (Tris) for 30 seconds in a Polytron PT-10 (Brinkmann) at setting 5. The suspension was centrifuged at 50,000×g for ten minutes, the supernatant discarded, the pellet resuspended in 10 vol ice-cold Tris as above, recentrifuged, resuspended at 1 g/5 ml, and stored in plastic vials at -70° C. (stable for at least six months). When needed, tissue was thawed at room temperature, disrupted in a Polytron, and kept on ice until used.
All incubations were for 60 minutes at 25° C. in 12×75 mm glass tubes containing 1 ml Tris with 5 mg original tissue weight of rat weight of rat striatal membranes, 4 nM [^3 H]-N-ethyl adenosine-5'-carboxamide ([^3 H]NECA), 50 nM N^6 -cyclopentyladenosine (to eliminate A1 receptor binding), 10 mM MgCl2, 0.1 units/ml of adenosine deaminase and 1% dimethylsulfoxide. N^6 -Cyclopentyladenosine was dissolved at 10 mM in 0.02N HCl and diluted in Tris. Stock solutions and dilutions of N^6 -cyclopentyladenosine could be stored at -20° C. for several months. Test compounds were dissolved at 10 mM in dimethylsulfoxide on the same day as the experiment, and diluted in dimethylsulfoxide to 100× the final incubation concentration. Control incubations received an equal volume (10 μl) of dimethylsulfoxide; the resulting concentration of dimethylsulfoxide had no effect on binding. [^3 H]NECA was diluted to 40 nM in Tris. The membrane suspension (5 mg/0.79 ml) contained sufficient MgCl2 and adenosine deaminase to give 10 mM and 0.1 units/ml, respectively, final concentration in the incubation. […] After all additions, the rack of tubes was vortexed, and the tubes were then incubated for 60 min at 25° C. in a shaking water bath. The rack of tubes was vortexed an additional time halfway through the incubation.
Incubations were terminated by filtration through 2.4 cm GF/B filters under reduced pressure. Each tube was filtered as follows: the contents of the tube were poured on the filter, 4 ml of ice-cold Tris were added to the tube and the contents poured onto the filter, and the filter was washed twice with 4 ml of ice-cold Tris. The filtration was complete in about twelve seconds. Filters were put in scintillation vials, 8 ml of Formula 947 scintillation fluid added, and the vials left overnight, shaken, and counted in a liquid scintillation counter at 40% efficiency.
Nonspecific binding was defined as binding in the presence of 100 μM N^6 -cyclopentyladenosine, and specific binding was defined as total binding minus nonspecific binding. The IC50 was calculated by weighted nonlinear least squares curve-fitting to the mass-action equation. [formula] where Y is cpm bound
T is cpm total binding without drug
S is cpm specific binding without drug
D is the concentration of drug and
K is the IC50 of the drug
Weighting factors were calculated under the assumption that the standard deviation was proportional to the predicted value of Y. Nonspecific binding was treated as a very large (infinite) concentration of drug in the computer analysis.

T1 sequence (P30543 whole entry): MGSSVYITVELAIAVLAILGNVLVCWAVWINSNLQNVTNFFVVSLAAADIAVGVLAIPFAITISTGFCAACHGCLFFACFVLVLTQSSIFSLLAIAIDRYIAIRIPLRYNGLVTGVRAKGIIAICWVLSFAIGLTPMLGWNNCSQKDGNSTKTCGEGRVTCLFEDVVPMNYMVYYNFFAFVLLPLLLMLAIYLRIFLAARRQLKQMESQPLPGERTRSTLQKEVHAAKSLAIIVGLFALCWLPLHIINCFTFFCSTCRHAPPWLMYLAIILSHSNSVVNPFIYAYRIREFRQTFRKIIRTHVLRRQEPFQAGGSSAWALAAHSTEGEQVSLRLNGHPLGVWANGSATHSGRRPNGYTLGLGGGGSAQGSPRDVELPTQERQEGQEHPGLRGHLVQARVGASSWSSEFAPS

In order of falling IC50:
1. CCOC(=O)[C@H]1O[C@@H](n2cnc3c(NC4CC5CCC4C5)ncnc32)[C@H](O)[C@@H]1O (relative stereo) [Example 8, N-6-Norbornyl-adenosine-5'ethylcarboxylate]  12400 nM
2. CCOC(=O)[C@H]1O[C@@H](n2cnc3c(NCC(c4ccccc4)c4ccccc4)ncnc32)[C@H](O)[C@@H]1O [Example 5, N6-(2,2-diphenylethyl)-5-adenosine-5'-ethylcarboxylate]  468 nM
3. CCNC(=O)[C@H]1O[C@@H](n2cnc3c(N[C@H](C)Cc4ccccc4)ncnc32)[C@H](O)[C@@H]1O [Example 1, (R)-N-6-[(2-phenyl-1-methyl)ethyl]-adenosine-5'-ethylcarboxamide]  70 nM
4. CCNC(=O)[C@H]1O[C@@H](n2cnc3c(NCC(c4ccccc4)c4ccccc4)ncnc32)[C@H](O)[C@@H]1O [Example 3, N^6-(2,2-diphenylethyl)-adenosine-5'-ethylcarboxamide]  25 nM
5. CCNC(=O)[C@H]1O[C@@H](n2cnc3c(NCc4cccc5ccccc45)ncnc32)[C@H](O)[C@@H]1O [Example 6, N-6-Naphthylmethyladenosine-5'-ethylcarboxamide]  8 nM

Tested on: platelets (collagen-induced aggregation)
Assay: Antithrombocyte aggregation test in vitro (ATA-8), collagen-induced, whole blood
Assay type: cell-based, human (Community Research Clinic volunteers)
Conditions: Homo sapiens, Platelet
Description: ANTITHROMBOCYTE AGGREGATION TEST-IN VITRO (ATA-8)
Blood is collected from Community Research Clinic volunteers who have not ingested aspirin or other non-steroidol antiinflammatory drugs within the preceeding two weeks and have not eaten within the nine hours before blood draw. Blood is taken in 4.5 ml portions in Vacutainer No. 6462S silicone-coated tubes or equivalent containing 0.5 ml of 3.8% trisodium citrate. Usually six or eight portions of 4.5 ml are drawn from each volunteer. The blood collected from three or four volunteers is pooled prior to centrifugation. […]
Addition of drug solution or saline (0.02 ml) is followed in 5 min by addition of aggregating agent (ADP or collagen suspension, 0.02 ml). Extent of aggregation, using ADP stimulus, or rate of aggregation, using collagen stimulus, is determined using the Payton Scientific Dual Channel Aggregation Module, Model 300B. Appropriate concentrations of ADP or collagen are determined by an initial brief titration.
The major slope (that is, the slope of the first straight line portion) of the collagen-induced aggregation curve for each drug concentration is determined and compared to the slope of the curve for control aggregations. Values for drug test aggregations are expressed as "precent of control" and are plotted versus drug concentration on semilog paper. […]

For `CCNC(=O)[C@H]1O[C@@H](n2cnc3c(N[C@H](C)Cc4ccccc4)ncnc32)[C@H](O)[C@@H]1O` [Example 1, (R)-N-6-[(2-phenyl-1-methyl)ethyl]-adenosine-5'-ethylcarboxamide], the IC50 was 50 nM.
